Assays:
[1] = test system: Escherichia coli strain 25922; test: Reduction of Escherichia coli in PBS after exposure to plant antimicrobials with and without silver (spread plate count); format: cell-based; settings: for effect of combination with silver ions on antimicrobial activity against E. coli: plant antimicrobial combined with silver ions in solution; for reduction with silver alone treatment (in words): 100 ppb silver alone, within 30 min of exposure
Protocol: Escherichia coli strain 25922 was obtained from the American Type Culture Collection (ATCC; Manassas, Va., USA) and was maintained on Tryptic Soy Agar (TSA; Difco, Sparks, Md., USA) with incubation for 18 to 24 h at 37° C. Prior to the start of each experiment, an Erlenmeyer flask containing 100 ml of Tryptic Soy Broth (TSB; Difco, Sparks, Md., USA) was inoculated with the organism and incubated on an orbital shaker (Model […]; New Brunswick Scientific, Edison, N.J., USA) at 300 rpm at 37° C. overnight. […] Beckman Coulter, Inc., Fullerton, Calif., USA). The pelleted cells were washed by re-suspension in 100 ml of physiological saline (0.85% NaCl) followed by centrifugation as described previously. This step was repeated one additional time. The final pellet was resuspended in 10 ml of sterile phosphate buffered saline (PBS; pH 7.4; Sigma-Aldrich, St. Louis, Mo., USA). […] A stock solution of silver (Ag) ions was prepared immediately prior to the start of each experiment by adding AgNO3 (J.T. Baker, Phillipsburg, N.Y., USA) to distilled water to obtain an Ag ion concentration of 100 mg/l (100 ppm). The Ag concentration was measured at the beginning of each experiment by a colorimetric procedure using a Hach DR/2000 spectrophotometer (Anonymous 1989). […] (Berkley, Calif., USA). […] Louis, Mo., USA). The plant antimicrobials were dissolved and diluted (volume to volume) to specific test concentrations using PBS. […] A control with E. coli in PBS but no added antimicrobials was also included. Purified stocks of the bacteria were added separately to the antimicrobial solutions (final concentration of […]) and the flasks were placed on an orbital shaker (300 rpm) for the duration of the experiment. Experiments were performed in triplicate at room temperature (24° C.) in 50 ml polypropylene conical tubes (Becton, Dickinson and Company, Franklin Lakes, N.J., USA). At predetermined time intervals, 100 μl samples were collected and neutralized with Dey Engley (D/E) neutralizing broth (Difco, Sparks, Md., USA) at a ratio of 1:10. The D/E is neutralizes the antimicrobial effect of silver whereas the plant antimicrobials are neutralized via dilution. Samples were assayed for bacterial enumeration immediately. Bacterial samples were ten-fold serially diluted in physiological saline as needed and the surviving bacteria were enumerated using the spread plate method on duplicate plates of Levine Eosin Methylene Blue Agar (EMB; Becton, Dickinson and Company, Franklin Lakes, N.J., USA). The plates were incubated at 37° C. for 24 hours and the surviving bacterial colonies were counted. Data were reported as logarithmic reduction using the formula […], where N0 was the concentration of E. coli at time zero and Nt was the surviving concentration at time t. A Student's t-test was used to determine if there were significant differences between the control and the antimicrobial treatments (the reductions were compared to the control after 30 min) or between the various treatments (for each exposure time).

[2] = humans; based on epidemiological and pharmacokinetic data (WHO); cited from earlier work

SMILES: Cc1ccc(C(C)C)cc1O [Carvacrol, carvacrol]
- effect of combination with silver ions on antimicrobial activity against E. coli [1]: enhanced or synergistic

SMILES: O=C/C=C/c1ccccc1 [Cinnamaldehyde]
- exposure time within which the reduction was statistically significant (P≦0.05) compared to the control ([1]; 0.05% citral, 0.02% carvacrol or 0.1% cinnamaldehyde, alone or with 100 ppb Ag, PBS): ≤ 20 min
- Reduction (Log10 ± standard deviation) in the population of Escherichia coli ([1]; Table 3, 1 min, 0.1% cinnamaldehyde (vol/vol), silver 100 ppb, PBS, inoculum 2.1 × 10^7 CFU/ml): 0.05 ± 0.04 Log10
- Reduction (Log10 ± standard deviation) in the population of Escherichia coli ([1]; Table 3, 5 min, 0.1% cinnamaldehyde (vol/vol), silver 100 ppb, PBS, inoculum 2.1 × 10^7 CFU/ml): 0.18 ± 0.04 Log10
- Reduction (Log10 ± standard deviation) in the population of Escherichia coli ([1]; Table 3, 10 min, 0.1% cinnamaldehyde (vol/vol), silver 100 ppb, PBS, inoculum 2.1 × 10^7 CFU/ml): 0.17 ± 0.07 Log10
- Reduction (Log10 ± standard deviation) in the population of Escherichia coli ([1]; Table 6, cinnamaldehyde 0.1% (vol/vol) in PBS, 1 min, inoculum 2.1 × 10^7 CFU/ml): 0.05 ± 0.04 Log10
- effect of combination with silver ions on antimicrobial activity against E. coli [1]: enhanced or synergistic

SMILES: CC(C)=CCCC(C)=CC=O [Citral]
- Reduction (Log10 ± standard deviation) in the population of Escherichia coli ([1]; Table 1, 1 min, 0.05% citral (vol/vol), silver 100 ppb, PBS, inoculum 1.7 × 10^7 CFU/ml): 0.06 ± 0.03 Log10
- effect of combination with silver ions on antimicrobial activity against E. coli [1]: enhanced or synergistic

SMILES: [Ag+] [Silver]
- reduction with silver alone treatment (in words) [1]: no reductions were observed
- reduction with silver alone treatment (in words) ([1]; listed as Ag): No significant reductions
- Reduction (Log10 ± standard deviation) in the population of Escherichia coli ([1]; Table 1, 30 min, 0.05% citral (vol/vol), silver 100 ppb, PBS, inoculum 1.7 × 10^7 CFU/ml): 0.01 ± 0.04 Log10
- Reduction (Log10 ± standard deviation) in the population of Escherichia coli ([1]; Table 2, 5 min, 0.02% carvacrol (vol/vol), silver 100 ppb, PBS, inoculum 2.9 × 10^7 CFU/ml): 0.08 ± 0.12 Log10
- Reduction (Log10 ± standard deviation) in the population of Escherichia coli ([1]; Table 2, 10 min, 0.02% carvacrol (vol/vol), silver 100 ppb, PBS, inoculum 2.9 × 10^7 CFU/ml): 0.00 ± 0.06 Log10
- Reduction (Log10 ± standard deviation) in the population of Escherichia coli ([1]; Table 2, 30 min, 0.02% carvacrol (vol/vol), silver 100 ppb, PBS, inoculum 2.9 × 10^7 CFU/ml): 0.00 ± 0.04 Log10
- Reduction (Log10 ± standard deviation) in the population of Escherichia coli ([1]; Table 3, 30 min, 0.1% cinnamaldehyde (vol/vol), silver 100 ppb, PBS, inoculum 2.1 × 10^7 CFU/ml): 0.12 ± 0.10 Log10
- Reduction (Log10 ± standard deviation) in the population of Escherichia coli ([1]; Table 4, 1 min, 0.5% allspice oil (vol/vol), silver 100 ppb, PBS, inoculum 6.6 × 10^6 CFU/ml): 0.00 ± 0.03 Log10
- Reduction (Log10 ± standard deviation) in the population of Escherichia coli ([1]; Table 4, 5 min, 0.5% allspice oil (vol/vol), silver 100 ppb, PBS, inoculum 6.6 × 10^6 CFU/ml): 0.00 ± 0.08 Log10
- Reduction (Log10 ± standard deviation) in the population of Escherichia coli ([1]; Table 4, 10 min, 0.5% allspice oil (vol/vol), silver 100 ppb, PBS, inoculum 6.6 × 10^6 CFU/ml): 0.00 ± 0.12 Log10
- Reduction (Log10 ± standard deviation) in the population of Escherichia coli ([1]; Table 4, 20 min, 0.5% allspice oil (vol/vol), silver 100 ppb, PBS, inoculum 6.6 × 10^6 CFU/ml): 0.00 ± 0.23 Log10
- Reduction (Log10 ± standard deviation) in the population of Escherichia coli ([1]; Table 4, 30 min, 0.5% allspice oil (vol/vol), silver 100 ppb, PBS, inoculum 6.6 × 10^6 CFU/ml): 0.29 ± 0.32 Log10
- No Observable Adverse Effect Level (NOAEL), lifetime limit of silver [2]: 10 g
